Our source for the Kd values is PMC7974150, “Backbone assignment of E. coli NfsB and the effects of addition of the cofactor analogue nicotinic acid” (Biomolecular Nmr Assignments, 2021).

This assay addresses T1, E. coli nitroreductase NfsB (also called NfnB) (Escherichia coli, UniProt P38489).
T1 sequence (P38489 2-217): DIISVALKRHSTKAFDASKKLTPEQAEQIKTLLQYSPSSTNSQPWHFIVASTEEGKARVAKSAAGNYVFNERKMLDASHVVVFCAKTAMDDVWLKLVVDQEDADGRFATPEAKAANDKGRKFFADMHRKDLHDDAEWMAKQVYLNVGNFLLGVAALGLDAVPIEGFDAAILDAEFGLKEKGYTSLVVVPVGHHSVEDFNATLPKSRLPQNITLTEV
The assay can be described thus: 1D 1H NMR titration, ligand proton shifts fitted to hyperbola. In kind it is binding. As to conditions: read-out: Apparent Kd. From the text:
1D 1H NMR titration, ligand proton shifts fitted to hyperbola on E. coli nitroreductase NfsB (also called NfnB)

Each structure is given as a SMILES string.

On to `O=C(O)c1cccnc1` [nicotinate], for which the Kd was 1900 ± 300 µM.
